This is an account of results in patent US10500232B2, “Small molecule cellular reprogramming to generate neuronal cells” (The J. David Gladstone Institutes, a testamentary trust …, priority 2013, dated 2019).

Read-outs that look alike come from different tables or passages of the source. A value given as a limit tells only on which side of the number the result lay.

In one assay the target is mGlu4 (Homo sapiens, UniProt Q14833). The following applies: cited from earlier work.
The test system of assay [1] is Tau-EGFP mouse embryonic fibroblasts transduced with Ascl1/Myt1l. The assay is described as follows: High-throughput compound screening for Tau-EGFP expression and neuronal morphology. It is filed as cell-based. The conditions noted are these: individual compound plus doxycycline 7 days, analysed day 14; hits confirmed dose-dependently in larger well format. How it is done:
Infected Tau-EGFP MEFs in 150-mm dishes were dissociated by trypsinization and plated to 384-well plates with 4×10^3 cells per well in 50 μl of N2B27 medium plus 2.0 μg ml^−1 doxycycline by using Multi-drop (Thermo Fisher). Fifty nanoliters of compounds from a collection of known drugs (˜3,000) were added to each well of infected cells by using BioMek (BD). After 3 days of compound treatment, […] N2B27 media were added to each well to keep the medium volume at 55-60 μl. The total period of compound treatment is 7 days. After that, medium was replaced with neuronal maturation medium for another 7 days. The cells were then fixed for immunostaining on Day 14. The high-throughput imaging was performed by using InCell 2000. Finally, the screening result was analyzed by InCell Workstation 2000.
To conduct the chemical screening, Tau-EGFP mouse embryonic fibroblasts were used that were transduced with an Ascl1/Myt1l coding region that was under control of tet operator. These cells were plated at 4,000 cells/well in 384-well plates containing chemically defined N2B27 media. After overnight incubation, the cells were treated for seven days with doxycycline to induce Ascl1/Myt1l expression and also contacted with individual compounds selected from a drug collection containing over 3000 compounds. The media was then replaced with compound-free standard neuronal media. Cells were fixed at day 14 then analyzed for Tau-EGFP expression and neuronal morphology by high content imaging (FIG. 4A and FIG. 3).

Another assay addresses mGlu receptors. The following applies: cited from earlier work.
Assay [2] has as its system HDAC activity in HeLa extracts. The conditions noted are these: read-out: IC50 for inhibition of HDAC activity; cited from earlier work.
Another assay deals with PDE4. The following applies: read-out: IC50 against PDE4; cited from earlier work.
Assay [3] addresses histone acetyltransferase p300 (Homo sapiens, UniProt Q09472). The following applies: simplified analog of CTPB; cited from earlier work.
Assay [4] deals with histone deacetylases (HDACs). The conditions noted are these: read-out: IC50 (histone deacetylase), cited from earlier work.
The next assay has as its target SAPK2/p38 (Homo sapiens, UniProt Q16539). The following applies: inhibitor of CK1 and ALK5; cited from earlier work.
The next assay deals with adenylate cyclase 1 (Homo sapiens, UniProt Q08828). The conditions noted are these: cited from earlier work.
adenylate cyclase 1, sequence (Q08828 whole entry): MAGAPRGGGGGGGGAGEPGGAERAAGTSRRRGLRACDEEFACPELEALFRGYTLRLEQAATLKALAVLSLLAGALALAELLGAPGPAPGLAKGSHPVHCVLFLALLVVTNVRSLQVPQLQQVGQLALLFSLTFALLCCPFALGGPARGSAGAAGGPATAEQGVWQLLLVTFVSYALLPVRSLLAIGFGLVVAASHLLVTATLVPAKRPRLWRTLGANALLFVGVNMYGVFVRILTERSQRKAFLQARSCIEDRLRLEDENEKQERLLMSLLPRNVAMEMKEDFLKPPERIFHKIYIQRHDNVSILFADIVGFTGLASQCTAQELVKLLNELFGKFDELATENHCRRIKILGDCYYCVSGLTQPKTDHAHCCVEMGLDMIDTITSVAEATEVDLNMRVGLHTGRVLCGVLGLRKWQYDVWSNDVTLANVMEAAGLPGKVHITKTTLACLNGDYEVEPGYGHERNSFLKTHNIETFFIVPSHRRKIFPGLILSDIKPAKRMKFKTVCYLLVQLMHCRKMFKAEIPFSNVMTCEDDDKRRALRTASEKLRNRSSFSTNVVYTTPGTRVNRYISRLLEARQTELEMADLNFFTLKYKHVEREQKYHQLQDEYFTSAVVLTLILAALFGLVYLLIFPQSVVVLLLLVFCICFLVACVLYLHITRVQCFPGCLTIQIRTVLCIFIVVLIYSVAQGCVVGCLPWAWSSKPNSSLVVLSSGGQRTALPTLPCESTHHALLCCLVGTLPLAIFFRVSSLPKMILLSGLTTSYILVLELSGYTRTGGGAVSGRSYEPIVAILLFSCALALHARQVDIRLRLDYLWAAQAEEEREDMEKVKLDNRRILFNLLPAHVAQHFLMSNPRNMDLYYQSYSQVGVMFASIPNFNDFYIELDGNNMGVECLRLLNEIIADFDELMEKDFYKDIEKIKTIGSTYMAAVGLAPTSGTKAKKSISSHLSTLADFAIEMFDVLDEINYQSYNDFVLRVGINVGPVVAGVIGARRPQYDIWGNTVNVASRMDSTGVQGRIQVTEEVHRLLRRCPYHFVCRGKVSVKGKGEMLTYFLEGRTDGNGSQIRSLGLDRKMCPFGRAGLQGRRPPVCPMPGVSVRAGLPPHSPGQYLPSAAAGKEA
Assay [5] concerns the target rat Group II mGlu receptor. The following applies: read-out: IC50 against rat Group II mGlu receptor; cited from earlier work.
For assay [6], the system named is STRC2-Ascl1/Myt1l neuronal cells from MEFs. Kind of assay: Patch clamp electrophysiology of STRC2-Ascl1/Myt1l induced neuronal cells. It is filed as cell-based, mouse.
Assay [7] deals with RFP-positive miR124-RFP/Brn2 human fibroblast-derived cells. The assay is described as follows: Patch clamp electrophysiology of STRC2-treated miR124-RFP/Brn2 cells. It is filed as cell-based.

mGlu4, sequence (Q14833 33-912): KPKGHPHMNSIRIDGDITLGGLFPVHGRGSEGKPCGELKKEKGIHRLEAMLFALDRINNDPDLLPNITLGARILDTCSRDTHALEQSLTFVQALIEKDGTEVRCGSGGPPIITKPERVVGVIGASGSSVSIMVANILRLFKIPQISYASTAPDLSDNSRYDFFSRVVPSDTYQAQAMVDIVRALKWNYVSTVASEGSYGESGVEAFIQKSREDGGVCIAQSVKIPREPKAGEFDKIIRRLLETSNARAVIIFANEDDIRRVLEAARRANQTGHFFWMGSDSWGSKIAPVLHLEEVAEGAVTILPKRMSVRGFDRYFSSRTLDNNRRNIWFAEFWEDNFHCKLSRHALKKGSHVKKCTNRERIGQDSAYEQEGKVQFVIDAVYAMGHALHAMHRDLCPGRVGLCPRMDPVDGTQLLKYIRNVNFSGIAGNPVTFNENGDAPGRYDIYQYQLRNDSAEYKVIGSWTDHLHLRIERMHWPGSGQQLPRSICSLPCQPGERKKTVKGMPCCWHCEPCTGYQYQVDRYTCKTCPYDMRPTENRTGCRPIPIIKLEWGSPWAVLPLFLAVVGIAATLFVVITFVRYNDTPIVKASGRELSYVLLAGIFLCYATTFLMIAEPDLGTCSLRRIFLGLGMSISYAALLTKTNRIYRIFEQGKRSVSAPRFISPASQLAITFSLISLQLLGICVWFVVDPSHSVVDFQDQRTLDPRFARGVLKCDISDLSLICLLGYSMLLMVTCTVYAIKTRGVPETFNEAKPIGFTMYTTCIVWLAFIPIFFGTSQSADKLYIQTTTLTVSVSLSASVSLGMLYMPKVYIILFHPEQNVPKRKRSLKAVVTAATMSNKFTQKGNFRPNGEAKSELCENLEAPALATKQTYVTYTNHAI
histone acetyltransferase p300, sequence (Q09472 whole entry, species assumed): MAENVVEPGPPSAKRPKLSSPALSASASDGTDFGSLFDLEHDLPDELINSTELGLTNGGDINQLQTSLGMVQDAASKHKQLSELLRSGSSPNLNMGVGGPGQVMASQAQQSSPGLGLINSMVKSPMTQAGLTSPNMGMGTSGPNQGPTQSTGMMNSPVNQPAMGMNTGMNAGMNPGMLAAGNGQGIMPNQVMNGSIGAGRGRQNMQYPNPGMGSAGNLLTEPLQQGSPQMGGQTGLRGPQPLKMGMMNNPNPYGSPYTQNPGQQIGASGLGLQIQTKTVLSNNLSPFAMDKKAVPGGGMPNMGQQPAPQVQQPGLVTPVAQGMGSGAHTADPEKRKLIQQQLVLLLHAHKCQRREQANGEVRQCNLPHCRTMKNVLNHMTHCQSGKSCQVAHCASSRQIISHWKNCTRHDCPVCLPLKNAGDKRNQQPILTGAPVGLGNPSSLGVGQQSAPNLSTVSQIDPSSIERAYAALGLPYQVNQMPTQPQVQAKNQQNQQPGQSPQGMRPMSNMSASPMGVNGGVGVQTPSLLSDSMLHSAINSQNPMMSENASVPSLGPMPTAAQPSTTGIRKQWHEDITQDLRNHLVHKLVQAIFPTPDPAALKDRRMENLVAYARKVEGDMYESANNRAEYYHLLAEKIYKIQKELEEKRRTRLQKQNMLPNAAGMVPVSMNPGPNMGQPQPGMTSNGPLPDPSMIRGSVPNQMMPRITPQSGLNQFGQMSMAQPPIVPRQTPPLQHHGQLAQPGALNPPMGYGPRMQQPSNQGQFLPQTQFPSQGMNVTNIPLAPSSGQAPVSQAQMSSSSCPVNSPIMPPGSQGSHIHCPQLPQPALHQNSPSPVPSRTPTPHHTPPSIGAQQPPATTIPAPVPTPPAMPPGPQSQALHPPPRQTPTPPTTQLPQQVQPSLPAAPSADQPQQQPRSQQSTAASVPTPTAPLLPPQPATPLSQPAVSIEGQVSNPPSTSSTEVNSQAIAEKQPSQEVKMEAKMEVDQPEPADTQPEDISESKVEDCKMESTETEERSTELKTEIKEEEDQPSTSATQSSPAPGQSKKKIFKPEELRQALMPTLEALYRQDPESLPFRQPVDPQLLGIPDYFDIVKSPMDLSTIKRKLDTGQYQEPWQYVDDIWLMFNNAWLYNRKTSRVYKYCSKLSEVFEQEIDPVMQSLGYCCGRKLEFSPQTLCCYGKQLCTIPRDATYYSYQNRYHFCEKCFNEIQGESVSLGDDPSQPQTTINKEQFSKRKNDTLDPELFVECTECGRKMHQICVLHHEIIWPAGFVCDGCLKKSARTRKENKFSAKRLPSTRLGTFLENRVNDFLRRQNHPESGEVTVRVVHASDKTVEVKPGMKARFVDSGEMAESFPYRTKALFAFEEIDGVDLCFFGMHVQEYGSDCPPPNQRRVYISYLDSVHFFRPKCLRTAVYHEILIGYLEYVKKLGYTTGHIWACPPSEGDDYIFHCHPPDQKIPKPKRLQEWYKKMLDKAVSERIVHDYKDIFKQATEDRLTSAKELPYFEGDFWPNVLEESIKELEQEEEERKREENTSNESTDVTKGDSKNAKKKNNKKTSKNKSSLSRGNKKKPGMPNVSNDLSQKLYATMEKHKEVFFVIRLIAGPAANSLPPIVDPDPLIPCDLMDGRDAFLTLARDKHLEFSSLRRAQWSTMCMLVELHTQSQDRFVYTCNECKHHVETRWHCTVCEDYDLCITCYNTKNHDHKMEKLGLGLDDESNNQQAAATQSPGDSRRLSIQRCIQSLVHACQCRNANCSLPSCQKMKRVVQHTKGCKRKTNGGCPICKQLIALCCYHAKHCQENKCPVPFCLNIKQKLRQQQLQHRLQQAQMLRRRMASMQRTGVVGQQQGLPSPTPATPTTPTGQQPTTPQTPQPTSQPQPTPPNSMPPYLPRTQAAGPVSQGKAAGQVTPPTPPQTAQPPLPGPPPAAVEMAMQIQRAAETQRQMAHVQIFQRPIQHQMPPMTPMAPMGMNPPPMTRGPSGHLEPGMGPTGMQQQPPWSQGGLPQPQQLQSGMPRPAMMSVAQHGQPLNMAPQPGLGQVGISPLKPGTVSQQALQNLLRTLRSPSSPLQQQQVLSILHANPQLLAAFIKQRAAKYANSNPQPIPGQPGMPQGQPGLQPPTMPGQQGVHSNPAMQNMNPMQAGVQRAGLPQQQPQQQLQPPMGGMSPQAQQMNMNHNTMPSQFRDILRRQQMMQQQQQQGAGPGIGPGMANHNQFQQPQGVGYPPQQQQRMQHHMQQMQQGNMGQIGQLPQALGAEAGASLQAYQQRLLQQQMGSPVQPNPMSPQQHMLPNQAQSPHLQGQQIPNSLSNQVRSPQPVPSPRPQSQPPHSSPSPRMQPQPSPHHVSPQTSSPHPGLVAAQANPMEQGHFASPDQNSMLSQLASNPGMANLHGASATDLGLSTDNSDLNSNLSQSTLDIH
SAPK2/p38, sequence (Q16539 whole entry): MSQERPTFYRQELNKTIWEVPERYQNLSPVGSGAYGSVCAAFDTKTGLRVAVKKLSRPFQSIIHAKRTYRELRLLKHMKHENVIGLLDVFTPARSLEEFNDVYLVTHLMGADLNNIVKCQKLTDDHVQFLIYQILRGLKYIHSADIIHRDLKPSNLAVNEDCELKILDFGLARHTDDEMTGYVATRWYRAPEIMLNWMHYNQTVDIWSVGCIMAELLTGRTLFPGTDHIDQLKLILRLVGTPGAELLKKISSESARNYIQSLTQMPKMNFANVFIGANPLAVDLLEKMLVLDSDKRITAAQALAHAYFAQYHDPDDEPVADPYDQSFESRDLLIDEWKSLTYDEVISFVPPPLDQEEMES

Take `O=C(Nc1cc(Cl)cc(Cl)c1)[C@H]1CCCC[C@H]1C(=O)O` (relative stereo) [VU0155041, cis-2-[[(3,5-dichlorophenyl)amino]carbonyl]cyclohexanecarboxylic acid]: the EC50 on mGlu4 is 1000 nM.

With `N[C@@]1(C(=O)O)CC[C@@H](C(=O)O)C1` [ACPD, (1S,3R)-1-aminocyclopentane-1,3-dicarboxylic acid], the “induction of Tau-EGFP expression and neuronal morphology (screen hit)” value in [1] is “induce Tau-EGFP expression and a neuronal morphology”. Further, the EC50 at mGlu receptors is 9000 to 40000 nM.

Turning to `Nc1ccccc1NC(=O)CCCCCCC(=O)Nc1ccccc1` [BML-210, N1-(2-aminophenyl)-N8-phenyl-octanediamide], the IC50 in [2] was about 80000 nM.

Consider `O=C(O)c1ccc(-c2ccc3cc(O)c(C45CC6CC(CC(C6)C4)C5)cc3c2)cc1` [CD1530, 4-(6-hydroxy-7-tricyclo[3.3.1.13,7]dec-1-yl-2-naphthalenyl)benzoic acid], for which, in assay [1], the “induction of Tau-EGFP expression and neuronal morphology (screen hit)” value is “induce Tau-EGFP expression and a neuronal morphology”.

As to `COc1ccc([C@H](Cc2ccncc2)c2ccccc2)cc1OC1CCCC1` [CDP-840, 4-[(2R)-2-(3-cyclopentyloxy-4-methoxyphenyl)-2-phenylethyl]pyridine], in the assay with PDE4, the IC50 is about 10000 nM.

In the case of `Cc1c[nH]c(-c2cnc(NCCNc3ccc(C#N)cn3)nc2-c2ccc(Cl)cc2Cl)n1` [CHIR99021, 6-(2-(4-(2,4-dichlorophenyl)-5-(4-methyl-1H-imidazol-2-yl)pyrimidin-2-ylamino)ethylamino)nicotinonitrile], the “induction of Tau-EGFP expression and neuronal morphology (screen hit)” value in [1] is “induce Tau-EGFP expression and a neuronal morphology”.

Regarding `CCOc1ccccc1C(=O)Nc1ccc(Cl)c(C(F)(F)F)c1` [CTB, N-(4-chloro-3-trifluoromethyl-phenyl)-2-ethoxybenzamide], in assay [3], the “activity as p300 activator relative to CTPB” value is given as “comparable or higher activity”.

For the molecule `CCCCCCCCCCCCCCCc1cccc(OCC)c1C(=O)Nc1ccc(Cl)c(C(F)(F)F)c1` [CTPB, N-(4-chloro-3-trifluoromethyl-phenyl)-2-ethoxy-6-pentadecyl-benzamide], the “induction of Tau-EGFP expression and neuronal morphology (screen hit)” value in [1] was “induce Tau-EGFP expression and a neuronal morphology”.

Consider `CC1(C)NC(=O)C(CCCCCC(=O)[C@H]2CO2)NC(=O)C2CCCN2C(=O)[C@@H](Cc2ccccc2)NC1=O` (stereo partly drawn) [Chlamydocin, (3R)-3-benzyl-6,6-dimethyl-9-[6-[(2R)-oxiran-2-yl]-6-oxohexyl]-1,4,7,10-tetrazabicyclo[10.3.0]pentadecane-2,5,8,11-tetrone], for which the IC50 in assay [4] (isoform not stated) was about 0.15 nM.

On to `Cc1cc2c3c(c1)C(c1ccccc1)=N[C@@H](NC(=O)c1ccncc1)C(=O)N3CC2` [Cl-1018, N-[(3R)-9-methyl-4-oxo-1-phenyl-3,4,6,7-tetrahydro[1,4]diazepino[6,7,1-hi]indol-3-yl]pyridine-4-carboxamide], for which the IC50 in the assay with PDE4 is about 3000 nM.

On to `NC(=O)c1ccc(-c2nc(-c3ccc4c(c3)OCCO4)c(-c3ccccn3)[nH]2)cc1` [D 4476, 4-[4-(2,3-Dihydro-1,4-benzodioxin-6-yl)-5-(2-pyridinyl)-IH-imidazol-2-yl]benzamide], for which the “selectivity over SAPK2/p38” value at SAPK2/p38 is “greater than 20 fold”.

In the case of `COc1ccc(C(=O)Nc2cc(Cl)cnc2Cl)c2cccnc12` [D-4418, N-(2,5-dichloropyridin-3-yl)-8-methoxyquinoline-5-carboxamide], the IC50 in the assay on PDE4 is about 170 nM.

With `C=C[C@@]1(C)CC(=O)[C@]2(O)[C@@]3(C)[C@@H](O)CCC(C)(C)[C@@H]3[C@H](O)[C@H](OC(C)=O)[C@@]2(C)O1` [Forskolin], the 50% inhibitory concentration (IC50) at adenylate cyclase 1 was 40 to 150 nM.

As for `CCOC(=O)c1ccc(N(C)C2CSC(c3ccccc3)=N2)cc1` (stereo not shown) [KHS2, ethyl 4-(methyl(2-phenyl-4,5-dihydrothiazol-4-yl)amino)benzoate], in assay [1], the “induction of Tau-EGFP expression and neuronal morphology (screen hit)” value is “induce Tau-EGFP expression and a neuronal morphology”.

As for `N[C@@]1(C(=O)O)CC[C@H]2[C@H](C(=O)O)[C@H]21` [LY354740, 1S,2S,5R,6S-2-aminobicyclo[3.1.0]hexane-2,6-dicarboxylate], in assay [5], the IC50 was about 254 nM.

Turning to `NC(=O)[C@@H]1CCCC[C@@H]1C(=O)Nc1ccc(Cl)c(Cl)c1` [Lu AF21934, (1S,2R)-N1-(3,4-dichlorophenyl)cyclohexane-1,2-dicarboxamide], the EC50 at mGlu4 is 500 nM.

As to `NC(=O)[C@H]1CCCC[C@H]1C(=O)Nc1ccc(Cl)c(Cl)c1` [Lu AF21935, (1R,2S)-N1-(3,4-dichlorophenyl)cyclohexane-1,2-dicarboxamide], the EC50 at mGlu4 was over 10000 nM.

As for `Nc1ccccc1NC(=O)c1ccc(CNc2nccc(-c3cccnc3)n2)cc1` [MGCD0103, N-(2-aminophenyl)-4-[[(4-pyridin-3-ylpyrimidin-2-yl)amino]methyl]benzamide], the IC50 in assay [4] (isoform not stated) was about 100 nM.

For the molecule `Nc1ccccc1NC(=O)c1ccc(CNC(=O)OCc2cccnc2)cc1` [MS-27-275, pyridin-3-ylmethyl-N-[[4-[(2-aminophenyl)carbamoyl]phenyl]methyl]carbamate], the IC50 in [4] is 100 to 1000 nM.

As to `NS(=O)(=O)c1cccc2c1c([N+](=O)[O-])cc1nc(O)c(O)nc12` [NBQX, 2,3-dihydroxy-6-nitro-7-sulfamoylbenzo quinoxaline], the “effect on spontaneous excitatory postsynaptic current (sEPSC)” value in [6] (AMPA receptor antagonist, 10 μM) is reported as “blocked”.

With `NC(=O)c1ccc(-c2nc(-c3ccc4c(c3)OCO4)c(-c3ccccn3)[nH]2)cc1` [SB 431542, 4-[4-(1,3-benzodioxol-5-yl)-5-(2-pyridinyl)-1H-imidazol-2-yl]benzamide], the “induction of Tau-EGFP expression and neuronal morphology (screen hit)” value in [1] is “induce Tau-EGFP expression and a neuronal morphology”.

Consider `COc1ccc(C(=O)Nc2c(Cl)c[n+]([O-])cc2Cl)c2ccc(C(F)(F)F)nc12` [Sch-351591], for which the IC50 in the assay with PDE4 was 150 nM.

In the case of `Cc1cc(C)cc(C(=O)OC2CC3CCC(C2)N3C)c1` (stereo not shown) [TDMB, Tropanyl-3,5-dimethylbenzoate], the “induction of Tau-EGFP expression and neuronal morphology (screen hit)” value in assay [1] is “induce Tau-EGFP expression and a neuronal morphology”.

As to `NC1=N[C@H](O)[C@H]2[C@H]3O[C@]4(O)O[C@@H]([C@@H](O)[C@@]2(N1)[C@@H]4O)[C@]3(O)CO` [TTX, tetrodotoxin], the “effect on trains of action potentials” value in assay [7] is on record as “abolished”.

For the molecule `CC(/C=C/C(=O)NO)=C\[C@@H](C)C(=O)c1ccc(N(C)C)cc1` [Trichostatin A, (R,2E,4E)-6-(4-(dimethylamino)benzoyl)-N-hydroxy-4-methylhepta-2,4-dienamide], in [1], the “induction of Tau-EGFP expression and neuronal morphology (screen hit)” value is “induce Tau-EGFP expression and a neuronal morphology”. Besides, in assay [4], the IC50 was about 1.8 nM.

For the molecule `C[C@@H](N)[C@H]1CC[C@H](C(=O)Nc2ccncc2)CC1` [Y27632, 4-[(1R)-1-aminoethyl]-N-pyridin-4-ylcyclohexane-1-carboxamide], the “induction of Tau-EGFP expression and neuronal morphology (screen hit)” value in assay [1] is “induce Tau-EGFP expression and a neuronal morphology”.

As for `COc1ccc(C2(C#N)CCC(C(=O)O)CC2)cc1OC1CCCC1` (stereo not shown) [ariflo, 4-cyano-4-(3-cyclopentyloxy-4-methoxyphenyl)cyclohexane-1-carboxylic acid], in the assay on PDE4, the IC50 is about 150 nM.

For the molecule `O=C(Nc1c(Cl)cncc1Cl)c1ccc(OC(F)F)c(OCC2CC2)c1` [roflumilast, 3-(cyclopropylmethoxy)-N-(3,5-dichloropyridin-4-yl)-4-(difluoromethoxy)benzamide], in the assay on PDE4, the IC50 is 0.6 nM.

On to `COc1ccc(C2CNC(=O)C2)cc1OC1CCCC1` (stereo not shown) [rolipram, 4-(3-cyclopentyloxy-4-methoxyphenyl)pyrrolidin-2-one], for which the “induction of Tau-EGFP expression and neuronal morphology (screen hit)” value in assay [1] was “induce Tau-EGFP expression and a neuronal morphology”.

In the case of `CCc1nn(C2CCCC2)c2c1CCn1c(-c3cccs3)nnc1-2` [tofimilast], the IC50 in the assay with PDE4 was about 13 nM.

For “(2S,3S,4R,5R)-3,4-dihydroxy-5-[6-[(3-iodophenyl)methylamino]purin-9-yl]-N-ethyloxolane-2-carboxamide [IB-MECA]”, the “induction of Tau-EGFP expression and neuronal morphology (screen hit)” value in [1] is “induce Tau-EGFP expression and a neuronal morphology”.

For picrotoxin, in [6] (GABAA receptor antagonist, 50 μM), the “effect on inhibitory postsynaptic currents (sIPSCs)” value is recorded as “blocked”.
